Data taken from patent US20040001859A1, “Anti-aging dietary supplements” (priority 2002, published 2004).

System: MDA (lipid peroxidation) in blood
Assay: MDA rat model assay (blood MDA, aged rats)
Type: in vivo, wistar rats
Description: A total of forty 3.5 year old wistar rats were divided into four groups, each containing 10 rats. Groups A, B, C and VE were treated with the activated yeast composition, the control yeast composition, saline and Vitamin E, respectively. Eight 8 month old wistar rats were also selected for group D, which were used as a junior control group.
Groups A, B and VE were administered daily 3 ml/kg (body weight) of the activated yeast composition, 3 ml/kg of the control yeast composition and 0.25 mg/kg of Vitamin E, respectively. Groups C and D were both treated with 3 ml/kg of saline daily. After three months of treatment, blood samples were taken from the heart of the rats and placed in a test tube with heparin. The test tube was then incubated at 37° C. for 10 minutes and centrifuged at 2500 rpm for 10 minutes. 4 ml of sulfuric acid and 0.5 ml of phosphotungstic acid were added to the serum and left at room temperature for 5 minutes after mixing. The mixture was then centrifuged at 3000 rpm for 10 minutes. 2 ml of sulfuric acid and 0.3 ml of phosphotungstic acid were added to the precipitate. Finally, the mixture was used to determine the MDA concentration as described previously.

## Cc1c(C)c2c(c(C)c1O)CC[C@@](C)(CCC[C@H](C)CCC[C@H](C)CCCC(C)C)O2 [VE, Vitamin E]
3.5 year old rats, blood from heart after three months of daily treatment, yeast compositions 3 ml/kg, Vitamin E 0.25 mg/kg
  MDA: 4.36 ± 0.78 µM
Aged rats, three months, in words
  lipid peroxidation compared to control yeast composition or saline: reduced lipid peroxidation
